# Source: PMC7922803, “Development and Validation of an LC-MS/MS Method for Quantification of the Novel Antibacterial Candidate DA-7010 in Plasma and Application to a Preclinical Pharmacokinetic Study” (Pharmaceuticals, 2021)
# Several values for one entry are separate records, joined by “and”; a condition that tells them apart may be missing. Identical values can stand only once.
# Tests used:
# [1] = Pharmacokinetic study after single oral administration to rats; format: in vivo; details: male, Sprague-Dawley, plasma, rat
# Text: (§1) The validated method was applied to pharmacokinetic studies of DA-7010 in mice, rats, and dogs. The protocols for the animal study were approved by the Department of Laboratory Animals, Institutional Animal Care and Use Committee (IACUC), on the Sungsim Campus of the Catholic University of Korea (approval no. 2014-022) or by IACUC of Biotoxtech (Cheongju, South Korea) (approval no. 140765). Male ICR mice and Sprague-Dawley rats (~8 weeks old) were purchased from Samtaco Bio (Osan, South Korea). Male beagle dogs (~10 months old), which are products from Beijing Marshall Biotechnology (Beijing, China), were used for this study. The accommodation and handling procedures for the animals were similar to those previously reported. Prior to dosing, the animals were fasted for 15 h and allowed to drink water freely. DA-7010 hydrochloride was administered in the pharmacokinetic study, and the dose of DA-7010 described below is based on the free base form of DA-7010.
# For the rat, the carotid artery was cannulated for serial blood sampling. DA-7010 (dissolved in distilled water) at a dose of 3 mg (in 2 mL) per kilogram was administered orally to the rats (n = 7) using gastric gavage. Blood samples (~50 μL) were collected at 0, 5, 10, 20, 30, 60, 120, 240, 360, 480, and 720 min via the carotid artery following the oral administration of the drug. The cannula was flushed immediately after each blood sampling to prevent blood clotting using a 0.3 mL heparinized 0.9% NaCl-injectable solution (20 units/mL). The same procedure described above was used for the collection and storage of the plasma samples.
# (§2) The pharmacokinetic parameters were calculated using noncompartmental analyses (WinNonlin; Pharsight Corporation, Mountain View, CA, USA). The AUC0-∞ was calculated using the trapezoidal rule-extrapolation method. The Cmax and Tmax were read directly from the experimental data.
# [2] = Stability of DA-7010 in plasma, summary over all species; format: in vitro ADME, mice, rats, and dogs
# Protocol: (§3) The stability of DA-7010 in the plasma from the mice, rats, and dogs was evaluated by analyzing 3 replicates of low, medium, and high QC samples under various storage conditions: the bench-top short-term stability (at room temperature for 8 h), post-preparative stability (prepared samples kept in LC vials at 4 °C for 24 h), freeze–thaw stability (3 freeze/thaw (−20 °C/room temperature) cycles), and long-term freezing stability (−20 °C for 1 month). The analyte was determined to be stable when the estimated recovery (determined concentration/nominal concentration × 100%) was in the range of 85–115% and the RSD was < 15%.
# [3] = test system: carbapenem-resistant Acinetobacter baumannii; set-up: method as in earlier work; details: mice systemically infected with carbapenem-resistant Acinetobacter baumannii; cited from earlier work
# [4] = Stability of DA-7010 in dog plasma under various storage conditions; format: in vitro ADME; details: n = 3, mean ± SD
# Protocol: as §3
# [5] = Stability of DA-7010 in mouse plasma under various storage conditions; format: in vitro ADME; details: n = 3, mean ± SD
# Protocol: as §3
# [6] = test system: Gram-negative bacteria (except for Pseudomonas aeruginosa); set-up: method as in earlier work; details: cited from earlier work
# [7] = Pharmacokinetic study after single oral administration to mice; format: in vivo; details: male, ICR, mouse, plasma
# Text: as §1
# DA-7010 (dissolved in distilled water) at a dose of 3 mg (in 10 mL) per kilogram was administered orally to the mouse groups A and B (n = 6 each) using gastric gavage. Blood samples (~ 50 μL) were collected into separate heparinized capillary tubes from the retro-orbital plexuses of mice that were under light anesthesia, which was achieved by isoflurane inhalation at 5, 30, 120, and 480 min for group A and 15, 60, 240, and 600 min for group B following the oral administration of DA-7010. The collected sample was immediately centrifuged, and a 25 μL plasma sample was stored at −20 °C until it was used for the LC-MS/MS analyses of DA-7010.
# as §2
# [8] = Stability of DA-7010 in rat plasma under various storage conditions; format: in vitro ADME; details: n = 3, mean ± SD
# Protocol: as §3
# [9] = Pharmacokinetic study after single oral administration to dogs; format: in vivo
# Text: as §1
# For the oral administration of DA-7010 in dogs, 3 mg/kg DA-7010 was loaded in a gelatin capsule (size 12, Torpac Inc., Fairfield, NJ, USA) without other excipients. Approximately 2 mL of blood was collected via the cephalic vein using a heparinized (100 IU/mL) 23 G syringe at pre-dose and 15, 30, 45, 60, 120, 240, 360, 480, 720, and 1440 min after the administration of the drug. The collection and storage of each plasma sample (25 μL) and extra plasma sample were performed using the same procedure described above.
# as §2
# [10] = representative sample 4 h after oral 3 mg/kg, read-out: Plasma concentration of DA-7010
# [11] = rats (n = 7), single oral dose 3 mg/kg, mean ± SD
# [12] = 3 freeze/thaw (–20 °C/room temperature) cycles, nominal 30 ng/mL
# [13] = 3 freeze/thaw (–20 °C/room temperature) cycles, nominal 400 ng/mL
# [14] = 3 freeze/thaw (–20 °C/room temperature) cycles, nominal 8000 ng/mL
# [15] = long term (‒20 °C over 1 month), nominal 30 ng/mL
# [16] = long term (‒20 °C over 1 month), nominal 400 ng/mL
# [17] = long term (‒20 °C over 1 month), nominal 8000 ng/mL
# [18] = prepared plasma samples in LC vials, post-preparative (prepared samples 4 °C 24 h), nominal 30 ng/mL
# [19] = prepared plasma samples in LC vials, post-preparative (prepared samples 4 °C 24 h), nominal 400 ng/mL
# [20] = prepared plasma samples in LC vials, post-preparative (prepared samples 4 °C 24 h), nominal 8000 ng/mL
# [21] = short term (room temperature 8 h), nominal 30 ng/mL
# [22] = short term (room temperature 8 h), nominal 400 ng/mL
# [23] = short term (room temperature 8 h), nominal 8000 ng/mL
# [24] = mice, single oral dose 3 mg/kg, from mean concentration–time profile
# [25] = male, beagle, dog, plasma, dogs (n = 4), single oral dose 3 mg/kg in gelatin capsule, mean ± SD
smiles,measurement,setting,value
"C[C@@H]1COB2O[C@H](CN)c3cccc(c32)O1 [DA-7010, ((2S,7R)-7-methyl-7,8-dihydro-2H-1,6,9-trioxa-9a-borabenzo[cd]azulen-2-yl)methanamine]",concentration at 4 h,[1]; [10],648 ng/mL
same,AUC(0-inf),[1]; [11],5320 ng·h/mL
same,Cmax,[1]; [11],1330 ± 427 ng/mL
same,half-life,"[1]; rats (n = 7), single oral dose 3 mg/kg, mean ± SD, read-out: Terminal half-life",2.88 ± 0.81 h
same,Tmax,"[1]; rats (n = 7), single oral dose 3 mg/kg, median (range)",0.333 h
same,"Stability, mean recoveries","[2]; 8 h at room temperature, 24 h in LC vial at 4 °C after preparation, 1 month at –20 °C",> 85.5%
same,"Stability, mean recoveries",[2]; after three freeze/thaw (–20 °C/room temperature) cycles,> 87.7%
same,ED50 (effective oral dose that protected 50% of mice),[3],3 mg/kg and 1.9 to 3 mg/kg
same,recovery at 30 ng/mL,[4]; [12],110 ± 3.32%
same,recovery at 400 ng/mL,[4]; [13],107 ± 2.01%
same,recovery at 8000 ng/mL,[4]; [14],114 ± 0.0718%
same,"recovery at 1 month, 30 ng/mL",[4]; [15],113 ± 0.5%
same,"recovery at 1 month, 400 ng/mL",[4]; [16],97.3 ± 1.22%
same,"recovery at 1 month, 8000 ng/mL",[4]; [17],111 ± 3.13%
same,"recovery at 24 h, 30 ng/mL",[4]; [18],110 ± 5.48%
same,"recovery at 24 h, 400 ng/mL",[4]; [19],108 ± 1.72%
same,"recovery at 24 h, 8000 ng/mL",[4]; [20],116 ± 2.34%
same,"recovery at 8 h, 30 ng/mL",[4]; [21],107 ± 3.08%
same,"recovery at 8 h, 400 ng/mL",[4]; [22],92.9 ± 1.62%
same,"recovery at 8 h, 8000 ng/mL",[4]; [23],108 ± 1.22%
same,recovery at 30 ng/mL,[5]; [12],109 ± 6.63%
same,recovery at 400 ng/mL,[5]; [13],91.2 ± 2.22%
same,recovery at 8000 ng/mL,[5]; [14],87.7 ± 2.58%
same,"recovery at 1 month, 30 ng/mL",[5]; [15],106 ± 1.54%
same,"recovery at 1 month, 400 ng/mL",[5]; [16],95.5 ± 3.04%
same,"recovery at 1 month, 8000 ng/mL",[5]; [17],88.5 ± 1.77%
same,"recovery at 24 h, 30 ng/mL",[5]; [18],106 ± 5.14%
same,"recovery at 24 h, 400 ng/mL",[5]; [19],92.7 ± 2.58%
same,"recovery at 24 h, 8000 ng/mL",[5]; [20],89.9 ± 7.84%
same,"recovery at 8 h, 30 ng/mL",[5]; [21],109 ± 4.97%
same,"recovery at 8 h, 400 ng/mL",[5]; [22],97.5 ± 6.48%
same,"recovery at 8 h, 8000 ng/mL",[5]; [23],89 ± 2.24%
same,minimum inhibitory concentration (MIC),[6],0.25 to 2 µg/mL
same,Cmax,[7]; [24],1280 ng/mL
same,Tmax,[7]; [24],0.25 h
same,AUC(0-inf),"[7]; mice, single oral dose 3 mg/kg, from mean concentration–time profile (n = 6 per point)",3920 ng·h/mL
same,half-life,"[7]; mice, single oral dose 3 mg/kg, from mean concentration–time profile, read-out: Terminal half-life",2.08 h
same,concentration at 4 h,[7]; [10],334 ng/mL
same,recovery at 30 ng/mL,[8]; [12],107 ± 5.92%
same,recovery at 400 ng/mL,[8]; [13],94.8 ± 6.2%
same,recovery at 8000 ng/mL,[8]; [14],100 ± 0.407%
same,"recovery at 1 month, 30 ng/mL",[8]; [15],85.5 ± 0.618%
same,"recovery at 1 month, 400 ng/mL",[8]; [16],95.2 ± 3.3%
same,"recovery at 1 month, 8000 ng/mL",[8]; [17],107 ± 2.67%
same,"recovery at 24 h, 30 ng/mL",[8]; [18],95.5 ± 3.65%
same,"recovery at 24 h, 400 ng/mL",[8]; [19],101 ± 1.33%
same,"recovery at 24 h, 8000 ng/mL",[8]; [20],111 ± 4.06%
same,"recovery at 8 h, 30 ng/mL",[8]; [21],110 ± 4.64%
same,"recovery at 8 h, 400 ng/mL",[8]; [22],97.9 ± 0.394%
same,"recovery at 8 h, 8000 ng/mL",[8]; [23],104 ± 0.647%
same,AUC(0-inf),[9]; [25],21800 ng·h/mL
same,Cmax,[9]; [25],1820 ± 90.1 ng/mL
same,half-life,"[9]; male, beagle, dog, plasma, dogs (n = 4), single oral dose 3 mg/kg in gelatin capsule, mean ± SD, read-out: Terminal half-life",7.53 ± 0.563 h
same,Tmax,"[9]; male, beagle, dog, plasma, dogs (n = 4), single oral dose 3 mg/kg in gelatin capsule, median (range)",1 h
same,concentration at 4 h,"[9]; male, beagle, plasma, dog, representative sample 4 h after oral 3 mg/kg, read-out: Plasma concentration of DA-7010",1950 ng/mL
same,Systemic exposure in dogs relative to mice or rats,[9]; single oral dose 3 mg/kg,approximately four times higher
